Experimental data from patent US20230277654A1, “STABLE FORMULATIONS OF CYTOMEGALOVIRUS” (priority 2017, published 2023).

Experiments:
FKBP = conditions: Clackson et al., 1998; cited from earlier work
rdCMV = experiment: Shield-1 dependence of rdCMV replication; format: cell-based, cytomegalovirus; conditions: rdCMV in ARPE-19 cells and other human primary cells
Text: Conversely, rdCMV should not replicate substantially in the absence of Shield-1. The quality of a replication defective mechanism is judged by how stringent the control is under the conditions not permissive for viral replication, i.e., the infectious titers of progeny virions under these conditions. The rdCMV described herein cannot replicate substantially (either in cell culture or within a patient) without Shield-1 present. Its replication in ARPE-19 cells and other types of human primary cells is conditional, and a molar concentration of Shield-1 greater than 0.1 μM, preferable at least 2 μM, in the culture medium is required to sustain viral replication.

In the case of `CC[C@H](C(=O)N1CCCC[C@H]1C(=O)O[C@H](CCc1ccc(OC)c(OC)c1)c1cccc(OCCN2CCOCC2)c1)c1cc(OC)c(OC)c(OC)c1` [Shield-1], the “binding to the F36V derivative compared to wild-type FKBP (tighter)” value (FKBP) is listed as “about 1,000 fold” and the “molar concentration in the culture medium required to sustain viral replication” value (rdCMV) is listed as “greater than 0.1 μM”.
